Measurements as given in patent publication US11718610B2, “Compounds containing benzosultam” (MEDSHINE DISCOVERY INC., priority 2020, dated 2023).

How the values were obtained:
HCT116 cells = experiment: HCT116 (Kras G13D) antiproliferative activity experiment (CellTiter Glo); assay type: cell-based; details: Homo sapiens, HCT-116, 72 h, cultured 3 days
Method: Experimental Embodiment 2: HCT116 (Kras^G13D) Antiproliferative Activity Experiment
(1) cell culture medium: 89% Mc′Coy 5A, 10% fetal bovine serum and 1% penicillin-streptomycin;
(2) culture medium and trypsin were preheated in a 37° C. water bath;
(3) the culture medium was removed in the cell culture flask and washed once with 1 mL of trypsin;
(4) 1 mL of trypsin was added to the cell culture flask, and the cell culture flask was shaken gently, and the trypsin was removed after full contact with the cell, and then the culture flask was placed into a 37° C. incubator containing 5% CO2 for about 1 minute;
(5) the cells were resuspended with 2 mL of cell culture medium, and about 0.01 mL of cell suspension was taken out for counting;
(§1) (6) the cell suspension was diluted with culture medium to a cell density required for plating of 2.5×10^4 cells per mL;
(7) 100 μL of culture medium was added to each well around the cell plate, and 80 μL of cell suspension was added to the other wells, and placed in a 37° C. incubator containing 5% CO2 for overnight culture.
(§2) (8) The required cell amount and culture medium were taken based on the new T75 culture flask for continued culture.
(§3) (1) the compound to be tested was prepared into […] solution with DMSO;
(2) 9 concentration gradients and 3-fold dilutions were performed on the compounds, that is, a double-duplicate experiment was set from 6 mmol to 2.7 μmol, and 78 μL of culture medium was added to the middle plate, and then 2 μL of gradient diluted compound per well was transferred to the middle plate according to the corresponding position, and after mixing, 20 μL per well was transferred to the cell plate, and the final concentration of the compound transferred to the cell plate was 30 μmol to 13.7 nmol. The cell plate was placed in a carbon dioxide incubator and cultured for another 3 days.
(1) CTG was added and the plate was read: 20 μL of CellTiter Glo was added to each well of the cell plate, and the cell plate was shaken in the dark for 10 min;
(2) plates were read on Victor Nivo.
The equation (Sample-Min)/(Max-Min)*100% was used to convert the original data into inhibition rate, and the IC50 value could be obtained by curve fitting with four parameters (obtained by “log (inhibitor) vs. response—variable slope” mode in GraphPad Prism).

Calu-6 cells = experiment: Calu-6 (Kras Q61K) antiproliferative activity experiment (CellTiterGlo); assay type: cell-based, human; details: cultured three days
Method: Experimental Embodiment 1: Calu-6 (Kras^Q61K) Antiproliferative Activity Experiment
(1) cell culture medium: 88% RPMI-1640, 10% fetal bovine serum, 1% L-glutamine and 1% penicillin-streptomycin;
(2) culture medium, trypsin and DPBS were preheated in a 37° C. water bath;
(3) the original culture medium was removed in the cell culture flask and washed once with 6 mL of PBS;
(4) 3.5 mL of trypsin was added to the cell culture flask, and the cell culture flask was shaken gently, and the trypsin was removed after full contact with the cell, and then the culture flask was placed into a 37° C. incubator containing 5% CO2 for about 1 minute;
(5) the cells were resuspended with 10 mL of cell culture medium, and about 0.6 mL of cell suspension (ViCell XR) was taken out for counting;
as §1
(7) 100 μL of PBS was added to each well around the cell plate, and 40 μL of cell suspension was added to the other wells, and placed in a 37° C. incubator containing 5% CO2 for overnight culture.
as §2, §3
(2) 9 μL of the compound was taken and added to Echo shallow well plate (Labcyte, #LP-0200), and the shallow well plate was centrifuged at 1000 rpm for 10 seconds;
(3) DPBS at the periphery of the cell plate was sucked out;
(4) the compound was gradient diluted and administrated with Echo, and 10 concentration gradients of each compound were diluted, and 100 nL of the diluent was added to the 384 cell plate separately, and then the cell plate was put back to the incubator and cultured for three days;
(5) then 100 μL of DPBS was added to the periphery of the cell plate.
(1) CTG was added and the plate was read: 20 μL of CellTiterGlo was added to each well of the cell plate, and the cell plate was shaken in the dark for 10 min. and the plate was read on Envision.

[1] = tested on: ERK phosphorylation in Calu-6 cells; experiment: Calu-6 (Kras Q61K) ERK phosphorylation inhibition experiment (HTRF); assay type: cell-based, human; details: Homo sapiens, Calu-6, 1 h, 1 hour incubation with compound
Method: Experimental Embodiment 5: Calu-6 (Kras^Q61K) ERK Phosphorylation Inhibition Experiment
1) the cells were resuscitated and cultured to logarithmic growth phase, digested with trypsin, seeded in 96-well plates with 30000 cells per well, and incubated overnight in an incubator.
2) 1 μL of gradient compound dissolved with DMSO was added to a 96-well plate and placed back into an incubator to incubate for 1 hour.
3) The cell plates were removed out, and the culture medium was poured off, and 50 μL of cell lysate (with 1% blocking peptide) was added to each well.
4) The lysate plate was mixed at 500 rpm and incubated and lysed at room temperature for 30 minutes.
5) The antibody mixture in the kit was prepared at a ratio of 1:1:38.
6) 16 μL of cell lysate was transferred to the HTRF plate per well, then the 4 μL of the configured antibody mixture was added thereto.
7) After incubation overnight, the plate was read with Envision, and the fitted curve was obtained according to the ratio (the ratio of fluorescence intensity of […]) and the EC50 was calculated according to the four-parameter fitting formula Y=Bottom+(Top−Bottom)/(1+10^((Log EC50−X)*HillSlope)) of Graphpad.

Colo205 cells = experiment: Colo205 (BRAF V600E) antiproliferative activity experiment (CellTiter-glo); assay type: cell-based; details: Homo sapiens, COLO 205, 72 h, cultured 3 days
Method: Experimental Embodiment 4: Colo205 (BRAF^V600E) Antiproliferative Activity Experiment
Cell line COLO205 (purchased from Procell), RPMI1640 culture medium, penicillin/streptomycin antibiotics were purchased from Vicente, and fetal bovine serum was purchased from Biosera. CellTiter-glo (cell viability chemiluminescence detection reagent) reagent was purchased from Promega.
COLO205 cells were seeded in a white 96-well plate with […] of cell suspension per well containing 3000 of COLO205 cells. The cell plate was placed in a carbon dioxide incubator and cultured overnight. The compound to be tested was diluted 3-fold to the 9th concentration with a pipette, that is, diluted from […], and a double-duplicate experiment was set-up. 78 μmol of culture medium was added to the middle plate, then 2 μmol of gradient dilution compound per well was transferred to the middle plate according to the corresponding position, and 20 μmol of per well was mixed and transferred to the cell plate. The concentration of the compound transferred to the cell plate ranged from 1 μmol to 0.15 nmol. The cell plate was placed in a carbon dioxide incubator and cultured for 3 days. Another cell plate was prepared, and the signal value was read as the maximum value (max value in the following equation) on the day of administration to participate in data analysis. 25 μmol of cell viability chemiluminescence detection reagent was added to each well of the cell plate and incubated at room temperature for 10 minutes to stabilize the luminescence signal. A multi-marker analyzer reading was used. After the incubation of the cell plate added with the compound was finished, 25 μmol of cell viability chemiluminescence detection reagent was added to each well of the cell plate and incubated at room temperature for 10 minutes to stabilize the luminescence signal. A multi-marker analyzer reading was used.
The equation (Sample−Min)/(Max−Min)*100% was used to convert the original data into inhibition rate, and the IC50 value could be obtained by curve fitting with four parameters (obtained by “log (inhibitor) vs. response—variable slope” mode in GraphPad Prism).

IC50 (HCT116 cells) [nM] | IC50 (Calu-6 cells) [nM] | IC50 [1] [nM] | IC50 (Calu-6 cells; Homo sapiens, Calu-6, 72 h) [nM] | IC50 (Colo205 cells) [nM] | Structure (SMILES)
103 | 88.5 | 5.88 |  |  | COc1cc(F)cc([C@@H](CO)NC(=O)[C@@H](C)N2Cc3ccc(-c4nc(NC5CCOCC5)ncc4Cl)cc3S2(=O)=O)c1 [Compound 1]
138 |  | 3.98 | 300 | 16 | COc1cc(F)cc([C@@H](CO)NC(=O)[C@@H](C)N2Cc3ccc(-c4nc(NC5CCOCC5)ncc4Br)cc3S2(=O)=O)c1 [Compound 3]
105 |  | 3.99 | 222 | 14 | [2H]C1([2H])CC(Nc2ncc(Cl)c(-c3ccc4c(c3)S(=O)(=O)N([C@H](C)C(=O)N[C@H](CO)c3cc(F)cc(OC)c3)C4)n2)CC([2H])([2H])O1 [Compound 9]
123 |  | 6.51 |  | 16 | COc1cc(F)cc([C@@H](CO)NC(=O)[C@@H](C)N2Cc3ccc(-c4nc(N[C@H]5CCOC[C@H]5F)ncc4Cl)cc3S2(=O)=O)c1 [Compound 11]
